Measurements reported in article PMC6332076, “Plasma Pharmacokinetics of Polyphenols in a Traditional Japanese Medicine, Jumihaidokuto, Which Suppresses Propionibacterium acnes-Induced Dermatitis in Rats” (Molecules, 2015).

Tested on: Propionibacterium acnes (P. acnes)-induced dermatitis
Assay: P. acnes-induced acute dermatitis, ear thickness
Assay type: in vivo, rat
Details: rats, intradermal P. acnes 0.14 mg/ear; JHT 0.5 g/kg p.o. 1 h before and 6 h after injection; PDN 10 mg/kg p.o.; P. acnes + DW group 181%; N = 5
Procedure: Figure 1 Suppression of Propionibacterium acnes (P. acnes)-induced dermatitis in rats by jumihaidokuto (JHT) administration. Dermatitis was induced in rats by injection of P. acnes (0.14 mg/50 μL/ear) into the pinna. The ear thickness was measured at 0 and 24 h after the injection. JHT suspended in distilled water (DW) was administered orally at a dose of 0.5 g/10 mL/kg at 1 h before and 6 h after the injection. Prednisolone (PDN, 10 mg/10 mL/kg) was used as a reference drug. Data represent the relative ear thickness, which was standardized against the previous values before the injection. N = 5. ^## p < 0.01 vs. saline + DW group (Student’s t-test), ** p < 0.01 significant vs. P. acnes + DW group (Dunnett’s test). […]
P. acnes-induced dermatitis was induced using the procedure described previously with a minor modification. […] The ear thickness was measured using a dial thickness gauge micrometer (Ozaki MFG Co., Tokyo, Japan) at 0 and 24 h after the injection. All data on the increase in ear thickness were expressed as a percentage of the previous value in each individual rat, and as the mean ± S.E. Statistical significance was evaluated by one-way analysis of variance, followed by the Dunnett’s multiple comparisons or unpaired Student’s t-test. […]

In the case of `C[C@]12C=CC(=O)C=C1CC[C@@H]1[C@@H]2[C@@H](O)C[C@@]2(C)[C@H]1CC[C@]2(O)C(=O)CO` [PDN, Prednisolone], the “increase in ear thickness in a 24 h period compared with that prior to injection” value was 123%.
